According to patent US11795200B2, “Nano small peptide and its use in preparation of drugs for treating and preventing fundus vascular diseases” (FUTU Biotech Co., Ltd., priority 2021, dated 2023):
Read-outs that look alike come from different tables or passages of the source. Non-standard residues stand in square brackets, D forms with d. Residues, ends and D or L forms follow the SMILES beside them. No end group written: not given here. *: point of attachment. Palmitoyl = CCCCCCCCCCCCCCCC(=O)*

What was measured:
sSema4D [1] = biological target: T1, sSema4D (Mus musculus, UniProt O09126); assay: ELISA of sSema4D in vitreous humor after eye drops; type: in vivo; design: from tissue; host or cells: vitreous humor of C57 mice; settings: eye drops 10 μL of 20 μM, twice daily, 3 days
T1 sequence (O09126 24-733 limits assumed): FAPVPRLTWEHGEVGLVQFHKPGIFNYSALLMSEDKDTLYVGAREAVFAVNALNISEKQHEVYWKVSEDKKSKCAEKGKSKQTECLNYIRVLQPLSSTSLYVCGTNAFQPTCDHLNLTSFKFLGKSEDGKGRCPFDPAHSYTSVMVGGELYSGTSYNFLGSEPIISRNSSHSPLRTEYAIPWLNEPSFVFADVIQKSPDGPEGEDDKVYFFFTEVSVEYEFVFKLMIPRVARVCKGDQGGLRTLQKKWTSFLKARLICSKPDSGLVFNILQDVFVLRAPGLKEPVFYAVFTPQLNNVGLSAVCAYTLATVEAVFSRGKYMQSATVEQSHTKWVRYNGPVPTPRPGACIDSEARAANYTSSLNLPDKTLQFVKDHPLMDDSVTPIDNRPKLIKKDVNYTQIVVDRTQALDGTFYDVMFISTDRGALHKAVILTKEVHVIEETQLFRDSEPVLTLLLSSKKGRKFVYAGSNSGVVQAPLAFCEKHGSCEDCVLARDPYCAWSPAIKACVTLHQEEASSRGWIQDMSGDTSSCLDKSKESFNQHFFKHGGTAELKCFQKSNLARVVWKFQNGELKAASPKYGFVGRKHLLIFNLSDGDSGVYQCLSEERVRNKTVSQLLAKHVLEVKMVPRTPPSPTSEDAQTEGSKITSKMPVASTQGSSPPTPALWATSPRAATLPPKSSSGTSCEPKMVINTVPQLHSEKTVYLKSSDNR
Source text: In this example, 8-week-old C57 male mice were used, with ten data points in each group, and each data point was the average of the experimental results of 5 mice.
The water on the eyeballs was then removed with filter paper to release and collect the vitreous humor. ELISA kit (Shanghai Yuanmu Biotechnology Co., Ltd.) was used to detect the expression of sSema4D protein in vitreous humor.
Control group was instilled with the same volume of PBS solution; vehicle group was instilled the same volume of artificial tears (Systane).

[2] = In vivo imaging of small animals, entry into vitreous humor; settings: eye drops (10 μL, 20 μM, three times) and vitreous injection (1 μl, 20 μM)
Experimental: (§1) 10 μL of FH and FG eye drops (with the concentration of 20 μM, the solvent therein was artificial tears) were instilled on the eyeball surface of mice (8-week-old C57 male mice), once at an interval of 1 h. One hour after the third eye drop, the mice were anesthetized to have cardiac perfusion, the eyeballs of the mice were taken out, the connective tissue on the eye surface was trimmed, and the eyeballs were washed with PBS solution for several times to remove the nano eye drops from the surface of the eyeballs. The eyeball was placed in a small animal imager (at emission wavelength of 535 nm and excitation wavelength of 490 nm) for image acquisition.

OIR model mice = assay: Fundus angiogenesis in OIR model (Isolectin B4, confocal); type: in vivo, mouse; settings: for percentage of abnormal blood vessels in the total retinal area: 2 nmol injected into the vitreous on day 12, read on day 17; for treatment effect on fundus angiogenesis compared with BMA-12: 2 nmol vs 1 μg BMA-12, intravitreal
Experimental: Treatment group (OIR): After giving birth, 3-4 month old C57BL/6 mother mice were placed in an oxygen chamber with 75% oxygen together with 7 day old young mice, and the young mice and the mother mice were taken out on the 12th day of birth of the young mice. Immediately after the young mice were anesthetized, 2 nmol of FH, 2 nmol of FG, and 1 μg of Sema4D neutralizing antibody (BMA-12) (BMA-12, i.e., anti-Sema4D) were injected into the vitreous, and an equal volume of DMSO was used as a control. The young mice were then further raised in normal air for 5 days; the young mice were anesthetized on the 17th day of birth, and after cardiac perfusion with normal saline, the eyeballs were separated and then fixed, stained with Isolectin B4 overnight at 4° C., flatly spread on a glass slide, and photographed.
Control group (Normal): Young mice, grown with normoxia, were anesthetized on the 17th day of birth. After cardiac perfusion with normal saline, the eyeballs were taken out, and the retinas were peeled off and then fixed with 4% paraformaldehyde, stained with Isolectin B4 at 4° C. overnight, flatly spread on a glass slide, and photographed
Laser confocal was carried out to detect retinal angiogenesis, and ImageJ was carried out to calculate the ratio of retinal neovascularization clusters to the entire retinal area, that is, the proportion of new blood vessels. […] It can be seen in FIG. 4A that the treatment effect of FH is the best.

[3] = test system: endothelial cells (primary endothelial cells of mouse brain microvessels); assay: CCK8 cytotoxicity assay; settings: 20 μM; 12, 14, and 36 h
sSema4D [4] = biological target: T1, sSema4D; assay: Reduction of sSema4D concentration in endothelial cell culture medium (ELISA); type: cell-based; settings: for sSema4D concentration: medium with 1600 ng/mL sSema4D, FH 20 μM, BMA-12 2 μg/μL; for sustained reduction of sSema4D concentration: added to endothelial cells, 12 to 48 h
Experimental: Endothelial cells were uniformly seeded in 6-well cell culture plates and cultured in a 5% CO2 incubator at 37° C. for 24 h. The nano small peptides FH, FG, DMSO, and Sema4D neutralizing antibody (BMA-12) were added to the medium (the concentration of sSema4D in the medium was 1600 ng/mL) to ensure that the final concentration of FH and FG was 20 μM, and the final concentration of the sSema4D neutralizing antibody (BMA-12) was 2 μg/μL, an equal volume of DMSO was then added as a control, and the culture plates were cultured in an incubator for 12, 24, 36, and 48 h, respectively. The cell culture medium was then collected and centrifuged. The supernatant was taken and the expression of Sema4D protein in the supernatant was detected using an ELISA kit (Shanghai Yuanmu Biotechnology Co., Ltd.).

[5] = mouse, in vivo
Experimental: as §1

entry into the vitreous humor of mice [2] | sSema4D concentration (sSema4D [4]; 24 h, endothelial cells) | effect on sSema4D concentration, FH compared with FG (sSema4D [4]; endothelial cells, within the same action time, 20 μM) | entry into the vitreous humor of mice [5] | Compound | expression of sSema4D protein in the vitreous humor (sSema4D [1]) | percentage of abnormal blood vessels in the total retinal area (OIR model mice) | treatment effect among groups in FIG. 4A (OIR model mice; 2 nmol intravitreal) | treatment effect on fundus angiogenesis compared with BMA-12 (OIR model mice) | toxic effects on endothelial cells [3] | sSema4D concentration (sSema4D [4]; 36 h, endothelial cells) | sustained reduction of sSema4D concentration (sSema4D [4]; 20 μM)
entered the vitreous humor of mice | can reduce the sSema4D concentration | better than that of FG | – | CCCCCCCCCCCCCCCC(=O)N[C@H](Cc1ccccc1)C(=O)N[C@@H](Cc1ccccc1)C(=O)N[C@H](C(=O)N[C@@H](CC(C)C)C(=O)N[C@@H](CCCCN)C(=O)N[C@@H](CCCCN)C(=O)N[C@@H](CCC(N)=O)C(=O)N[C@@H](CCCCN)C(=O)N[C@@H](CCCNC(=N)N)C(=O)N1CCC[C@H]1C(=O)N[C@@H](CCCNC(=N)N)C(=O)N[C@@H](Cc1c[nH]cn1)C(=O)O)C(C)C [FH] (Palmitoyl-[dF]FVLKKQKRPRH-OH) | reduce the expression of sSema4D protein in the vitreous humor | reduce the percentage of abnormal blood vessels in the total retinal area | the best | comparable to that of the Sema4D neutralizing antibody (BMA-12) | did not cause toxic effects | can still reduce the sSema4D concentration | can sustainably reduce the concentration of sSema4D
– | – | – | entered the vitreous humor of mice | Palmitoyl-FFVLKKNKAAKG [FG] | reduce the expression of sSema4D protein in the vitreous humor | reduce the percentage of abnormal blood vessels in the total retinal area | – | comparable to that of the Sema4D neutralizing antibody (BMA-12) | – | – | can sustainably reduce the concentration of sSema4D
